# Where a name gives a salt, the structure may show the parent alone. Read-outs that look alike come from different tables or passages of the source.
# Experiments:
# [1] = printed: following nasal use (administration); prior-art compositions, strong first-pass effect; cited from earlier work
# clinical = details: male, human, plasma, other: intranasal (nasal spray), 10 mg
# Excerpt: The total number of healthy adult male subjects enrolled was twelve. Throughout the study, the conditions of their hospital stay, a dietary pattern, a water consumption regimen, a physical activity regimen for the volunteers were standardized. The clinical step of study consisted of a screening, two study periods, a washout period, and the final examination. The total duration of study, starting from the screening through the completion of study, was approximately three weeks with a seven-day wash-out period between medication administrations. Each study period was preceded by inpatient hospitalization in the evening of the previous day. […] In each study period the following was done: the intake of the medications under study whose prescription was determined by a simple randomization method; blood sampling for the determination of active pharmaceutical ingredient concentration; the measurement of vital data such as blood pressure (BP), heart rate; and questionnaire survey of volunteers.
# Blood was sampled as follows: 0 hours, 15 min., 30 min., 45 min., 1 hour, 1 hour 30 min., 2 hours, 2 hours 30 min., 3 hours, 4 hours, 6 hours, 8 hours, 12 hours, and 24 hours post-dosing. […] The actual sampling time was recorded. […]
# AUC(0-∞) is AUC0-t plus the extrapolated AUC from time t to infinity [ng×h/mL]. The extrapolation is calculated from the last measured concentration (Ct): AUC(0-∞)=AUC(0-t)+Ct/Kel. […]
# [2] = 12 volunteers
# Excerpt: The total number of healthy adult male subjects enrolled was twelve. Throughout the study, the conditions of their hospital stay, a dietary pattern, a water consumption regimen, a physical activity regimen for the volunteers were standardized. The clinical step of study consisted of a screening, two study periods, a washout period, and the final examination. The total duration of study, starting from the screening through the completion of study, was approximately three weeks with a seven-day wash-out period between medication administrations. Each study period was preceded by inpatient hospitalization in the evening of the previous day. The medications were dosed on Day 1 of each study period starting from 08:00 a.m. The subjects stayed in the centre for 24 hours after the administration of the medication under study in each study period. In each study period the following was done: the intake of the medications under study whose prescription was determined by a simple randomization method; blood sampling for the determination of active pharmaceutical ingredient concentration; the measurement of vital data such as blood pressure (BP), heart rate; and questionnaire survey of volunteers. […]
smiles,measurement,setting,value
"Oc1ccc2c3c1O[C@H]1[C@@H](O)CC[C@@]4(O)[C@@H](C2)N(CC2CCC2)CC[C@]314 [nalbuphine, (5α.6α)-17-(cyclobutylmethyl)-4.5epoxy-morphinan-3.6.14-triol hydrochloride]",bioavailability of nalbuphine,[1],16.4 to 17.7%
same,bioavailability,clinical,50%
same,adverse reactions recorded,[2]; after intramuscular administration of 10 mg of nalbuphine,24 cases
same,adverse reactions recorded,[2]; after intravenous administration of 10 mg of nalbuphine,25 cases

# From US20230372327A1, “PHARMACEUTICAL COMPOSITION BASED ON […]/OR ITS SALTS FOR NASAL ADMINISTRATION” (Pharmbiotest Poland Sp. z o. o., priority 2020, published 2023)
